Test results: US6465457B1 (priority 1991, dated 2002)
Read-outs that look alike come from different tables or passages of the source.

How the values were obtained:
Format in all cases: in vivo
[1] = tested on: Puccinia recondita (Wheat); experiment: Foliar fungal disease test on plants: Puccinia recondita (Wheat)
Description: (§1) The compounds were tested against a variety of foliar fungal diseases of plants. The technique employed was as follows.
(§2) The plants were grown in John Innes Potting Compost (No 1 or 2) in 4 cm diameter minipots. The test compounds were formulated either by bead milling with aqueous DISPERSOL T or as a solution in acetone or acetone/ethanol which was diluted to the required concentration immediately before use. The formulations (100 ppm active ingredient) were sprayed on to the foliage or applied to the roots of the plants in the soil. The sprays were applied to maximum retention and the root drenches to a final concentration equivalent to approximately 40 ppm a.i. in dry soil. TWEEN 20 was added to give a final concentration of 0.05% when the sprays were applied to cereals.
[…] An exception was the test on Erysiphe graminis in which the plants were inoculated 24 hours before treatment. Foliar pathogens were applied by spray as zoosporangial suspensions onto the leaves of test plants. After inoculation, the plants were put into an appropriate environment to allow infection to proceed and then incubated until the disease was ready for assessment. The period between inoculation and assessment varied from four to fourteen days according to the disease and environment.
(§3) The disease level present (i.e. leaf area covered by actively sporulating disease) on each of the treated plants was recorded using the following assessment scale:
(§4) Each assessment was then expressed as a percentage of the level of disease present on the untreated control plants. This calculated value is referred to as a POCO (Percentage of Control) value. An example of a typical calculation is as follows:
(§5) Disease level on untreated control=90
(§6) Disese level on treated plant=30 [formula]
(§7) This calculated POCO value is then rounded to the nearest of the values in the 9-point assessment scale shown above. In this particular example, the POCO value would be rounded to 30. If the calculated POCO falls exactly mid-way between two of the points, it is rounded to the lower of the two values.

Septoria nodorum (Wheat) = experiment: Foliar fungal disease test on plants: Septoria nodorum (Wheat); details: one or two days before inoculation
Description: as §1
as §2, with “The formulations (100 ppm active ingredient) were sprayed on to the foliage or applied to the roots of the plants in the soil.” left out
(§8) For most of the tests the compounds were applied to the soil (roots) or to the foliage (by spraying) one or two days before the plant was inoculated with the disease. An exception was the test on Erysiphe graminis in which the plants were inoculated 24 hours before treatment. Foliar pathogens were applied by spray as zoosporangial suspensions onto the leaves of test plants. After inoculation, the plants were put into an appropriate environment to allow infection to proceed and then incubated until the disease was ready for assessment. The period between inoculation and assessment varied from four to fourteen days according to the disease and environment.
as §3, §4, §5, §6, §7

[2] = tested on: Plasmopara viticola (Vines); experiment: Foliar fungal disease test on plants: Plasmopara viticola (Vines); details: one or two days before inoculation
Description: as §1
as §2, with “The formulations (100 ppm active ingredient) were sprayed on to the foliage or applied to the roots of the plants in the soil.” left out
as §8, §3, §4, §5, §6, §7

[3] = tested on: Pyricularia oryzae (Rice); details: one or two days before inoculation
[4] = tested on: Thanatephorus cucumeries (Rice); experiment: Foliar fungal disease test on plants: Thanatephorus cucumeries (Rice); details: one or two days before inoculation
Description: as §1
as §2, with “The formulations (100 ppm active ingredient) were sprayed on to the foliage or applied to the roots of the plants in the soil.” left out
as §8, §3, §4, §5, §6, §7

[5] = tested on: Venturia inaequalis (Apples); experiment: Foliar fungal disease test on plants: Venturia inaequalis (Apples); details: one or two days before inoculation
Description: as §1
as §2, with “The formulations (100 ppm active ingredient) were sprayed on to the foliage or applied to the roots of the plants in the soil.” left out
as §8, §3, §4, §5, §6, §7

[6] = tested on: Phytophthora infestans (Tomatoes); details: one or two days before inoculation
[7] = tested on: Erysiphe graminis tritici (Wheat); experiment: Foliar fungal disease test on plants: Erysiphe graminis tritici (Wheat); details: plants inoculated 24 hours before treatment
Description: as §1
as §2, with “The formulations (100 ppm active ingredient) were sprayed on to the foliage or applied to the roots of the plants in the soil.” left out
as §8, §3, §4, §5, §6, §7

[8] = 100 ppm a.i. foliar spray or root drench (approx. 40 ppm in dry soil), one or two days before inoculation
[9] = 100 ppm a.i. foliar spray or root drench (approx. 40 ppm in dry soil)
[10] = 100 ppm a.i. foliar spray or root drench, plants inoculated with Puccinia recondita 48 hours before treatment

Compound | POCO (Percentage of Control) disease level, Puccinia recondita (Wheat) ([1]; 10 ppm foliar spray only, one or two days before inoculation) | POCO (Percentage of Control) disease level, Septoria nodorum (Wheat) (Septoria nodorum (Wheat); 10 ppm foliar spray only) | POCO (Percentage of Control) disease level, Plasmopara viticola (Vines) ([2]; 10 ppm foliar spray only) | POCO (Percentage of Control) disease level, Pyricularia oryzae (Rice) ([3]; 10 ppm foliar spray only) | POCO (Percentage of Control) disease level, Thanatephorus cucumeries (Rice) ([4]; 10 ppm foliar spray only) | POCO (Percentage of Control) disease level, Venturia inaequalis (Apples) ([5]; 10 ppm foliar spray only) | POCO (Percentage of Control) disease level, Phytophthora infestans (Tomatoes) ([6]; 10 ppm foliar spray only) | POCO (Percentage of Control) disease level, Puccinia recondita (Wheat) [1, 8] | POCO (Percentage of Control) disease level, Septoria nodorum (Wheat) (Septoria nodorum (Wheat); [9]) | POCO (Percentage of Control) disease level, Plasmopara viticola (Vines) [2, 9] | POCO (Percentage of Control) disease level, Pyricularia oryzae (Rice) [3, 9] | POCO (Percentage of Control) disease level, Thanatephorus cucumeries (Rice) [4, 9] | POCO (Percentage of Control) disease level, Erysiphe graminis tritici (Wheat) [7, 9] | POCO (Percentage of Control) disease level, Phytophthora infestans (Tomatoes) [6, 9] | POCO (Percentage of Control) disease level, Puccinia recondita (Wheat) ([1]; 10 ppm foliar spray only, plants inoculated with Puccinia recondita 48 hours before treatment) | POCO (Percentage of Control) disease level, Erysiphe graminis tritici (Wheat) ([7]; 10 ppm foliar spray only) | POCO (Percentage of Control) disease level, Puccinia recondita (Wheat) [1, 10] | POCO (Percentage of Control) disease level, Venturia inaequalis (Apples) [5, 9]
COC=C(C(=O)OC)c1ccccc1COC(=S)Nc1ccccc1 [5 (6)] | 90 (90 and 94 = 60.1-100% disease present) | 90 (90 and 94 = 60.1-100% disease present) | 90 (90 and 94 = 60.1-100% disease present) | 60 (60 = 30.1-60% disease present) | 0 (0 = 0% disease present) | 0 (0 = 0% disease present) | 90 (90 and 94 = 60.1-100% disease present) |  |  |  |  |  |  |  |  |  |  | 
COC=C(C(=O)OC)c1ccccc1COC(=O)Nc1cccc(OC)c1 [7 (1)] |  |  |  |  |  |  |  | 10 (10 = 5.1-10% disease present) | 90 (90 and 94 = 60.1-100% disease present) | 60 (60 = 30.1-60% disease present) | 0 (0 = 0% disease present) | 60 (60 = 30.1-60% disease present) | 5 (5 = 3.1-5% disease present) | 90 (90 and 94 = 60.1-100% disease present) |  |  |  | 
COC=C(C(=O)OC)c1ccccc1COC(=S)Nc1ccc([N+](=O)[O-])cc1 [9 (6)] |  |  |  |  |  |  |  | 90 (90 and 94 = 60.1-100% disease present) | 90 (90 and 94 = 60.1-100% disease present) | 90 (90 and 94 = 60.1-100% disease present) | 20 (20 and 24 = 10.1-20% disease present) | 90 (90 and 94 = 60.1-100% disease present) | 90 (90 and 94 = 60.1-100% disease present) |  |  |  |  | 
COC=C(C(=O)OC)c1ccccc1COC(=O)Nc1cccc(SC)c1 [10 (1)] |  | 90 (90 and 94 = 60.1-100% disease present) | 90 (90 and 94 = 60.1-100% disease present) |  | 90 (90 and 94 = 60.1-100% disease present) | 0 (0 = 0% disease present) | 90 (90 and 94 = 60.1-100% disease present) |  |  |  |  |  |  |  | 90+ (90 and 94 = 60.1-100% disease present) | 90 (90 and 94 = 60.1-100% disease present) |  | 
COC=C(C(=O)OC)c1ccccc1COC(=O)Nc1ccccc1[N+](=O)[O-] [15 (1)] |  |  |  |  |  |  |  |  | 0 (0 = 0% disease present) | 0 (0 = 0% disease present) | 5 (5 = 3.1-5% disease present) |  |  | 3 (3 = 1.1-3% disease present) |  |  | 90+ (90 and 94 = 60.1-100% disease present) | 0 (0 = 0% disease present)
COC=C(C(=O)OC)c1ccccc1COC(=O)N(C)c1ccccc1[N+](=O)[O-] [15 (2)] |  |  |  |  |  |  |  |  | 5 (5 = 3.1-5% disease present) | 0 (0 = 0% disease present) | 0 (0 = 0% disease present) |  |  | 60 (60 = 30.1-60% disease present) |  |  | 0+ (0 = 0% disease present) | 0 (0 = 0% disease present)
COC=C(C(=O)OC)c1ccccc1COC(=S)Nc1ccccc1SC [21 (6)] |  |  |  |  |  |  |  | 0 (0 = 0% disease present) | 0 (0 = 0% disease present) | 0 (0 = 0% disease present) | 0 (0 = 0% disease present) | 0 (0 = 0% disease present) | 3 (3 = 1.1-3% disease present) |  |  |  |  | 
COC=C(C(=O)OC)c1ccccc1COC(=O)N(C)c1cc(F)ccc1F [27 (2)] |  |  |  |  |  |  |  |  | 0 (0 = 0% disease present) | 0 (0 = 0% disease present) | 0 (0 = 0% disease present) | 0 (0 = 0% disease present) |  | 5 (5 = 3.1-5% disease present) |  |  | 0+ (0 = 0% disease present) | 0 (0 = 0% disease present)
COC=C(C(=O)OC)c1ccccc1COC(=O)Nc1ccccc1C#N [29 (1)] |  |  |  |  |  |  |  |  | 60 (60 = 30.1-60% disease present) | 20 (20 and 24 = 10.1-20% disease present) | 0 (0 = 0% disease present) | 5 (5 = 3.1-5% disease present) | 5 (5 = 3.1-5% disease present) |  |  |  | 30+ (30 = 20.1-30% disease present) | 0 (0 = 0% disease present)
COC=C(C(=O)OC)c1ccccc1COC(=O)N(C)c1ccccc1C#N [29 (2)] |  |  |  |  |  |  |  |  | 30 (30 = 20.1-30% disease present) | 0 (0 = 0% disease present) | 0 (0 = 0% disease present) | 30 (30 = 20.1-30% disease present) | 0 (0 = 0% disease present) |  |  |  | 20+ (20 and 24 = 10.1-20% disease present) | 0 (0 = 0% disease present)
CCN(C(=O)OCc1ccccc1C(=COC)C(=O)OC)c1ccc(F)c(Cl)c1 [104 (3)] |  |  |  |  |  |  |  |  | 10 (10 = 5.1-10% disease present) | 0 (0 = 0% disease present) |  | 0 (0 = 0% disease present) | 0 (0 = 0% disease present) | 10 (10 = 5.1-10% disease present) |  |  | 0+ (0 = 0% disease present) | 0 (0 = 0% disease present)
COC=C(C(=O)OC)c1ccccc1COC(=O)N(C)c1cccc([N+](=O)[O-])c1F [106 (2)] |  |  |  |  |  |  |  |  | 30 (30 = 20.1-30% disease present) | 0 (0 = 0% disease present) |  | 0 (0 = 0% disease present) | 0 (0 = 0% disease present) | 60 (60 = 30.1-60% disease present) |  |  | 30+ (30 = 20.1-30% disease present) | 0 (0 = 0% disease present)
